The source of these data is patent US5476944A, “Derivatives of cyclic phenolic thioethers” (G. D. Searle & Co., priority 1994, dated 1995).

What all share (format): biochemical
For one assay, the target named is T1, COX-II (Homo sapiens, UniProt P35354).
T1 construct: made in house; host or cells: SF9 insect cells, recombinant baculovirus (pVL1393); coding fragment from Cayman Chemical
T1 sequence (P35354 18-604): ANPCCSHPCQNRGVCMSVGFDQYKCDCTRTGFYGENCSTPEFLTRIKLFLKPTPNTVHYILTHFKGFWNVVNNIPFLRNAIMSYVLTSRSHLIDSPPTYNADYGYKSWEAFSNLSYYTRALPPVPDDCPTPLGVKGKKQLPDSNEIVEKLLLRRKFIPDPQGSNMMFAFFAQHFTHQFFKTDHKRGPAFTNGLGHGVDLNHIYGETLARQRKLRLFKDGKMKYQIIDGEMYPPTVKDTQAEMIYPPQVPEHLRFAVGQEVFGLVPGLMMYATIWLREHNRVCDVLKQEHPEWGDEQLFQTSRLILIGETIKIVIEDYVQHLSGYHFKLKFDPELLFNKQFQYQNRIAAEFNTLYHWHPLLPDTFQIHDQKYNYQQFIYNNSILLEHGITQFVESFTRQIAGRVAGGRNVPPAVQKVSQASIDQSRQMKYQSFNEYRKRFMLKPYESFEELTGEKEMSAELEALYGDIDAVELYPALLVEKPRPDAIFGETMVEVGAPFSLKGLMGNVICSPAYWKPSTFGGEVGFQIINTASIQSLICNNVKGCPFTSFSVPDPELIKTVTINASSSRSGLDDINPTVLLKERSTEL
Put plainly: Human Enzyme Assay, recombinant COX-II (PGE2 ELISA). Here is the method: (§1) The compounds of the invention are evaluated with respect to COX-I and COX-II activity in vitro using an enzyme based assay according to the following assay procedure.
(§2) (a) Preparation of Recombinant COX Baculoviruses
(§3) A 2.0 kb fragment containing the coding region for either human or murine COX-I (Caymen Chemical, Ann Arbor, Mich.), or human or murine COX-II (Caymen Chemical, Ann Arbor, Mich.), was cloned into a BamH1 site of the baculovirus transfer vector pVL1393 (Invitrogen, Palo Alto, Calif.) to generate a baculovirus transfer vector. Recombinant baculoviruses were isolated by transfecting 4 μg of baculovirus transfer vector DNA into SF9 cells (2×10e8) (Invitrogen, Palo Alto, Calif.) along with 200 ng of linearized bacium by the phosphate method. See M. D. Summers et al., "A Manual of Methods for Baculovirus Vectors and Insect Cell Culture Procedure," TEXAS AGRICULTURE EXPERIMENTAL STATION BULLETIN, No. 1555 (1987), which is incorporated herein by reference. Recombinant viruses were purified by three rounds of plaque purification, and high titer (10e7-10e8 pfu/ml) stocks of virus were prepared. For large scale production, SF9 insect cells (Invitrogen, Palo Alto, Calif.) were infected in 10 liter fermentors (0.5×10^6 /ml) with the recombinant baculovirus stock, such that the multiplicity of infection was 0.1. After 72 hours, the cells were centrifuged and the cell pellet was homogenized in Tris/Sucrose (50 mM: 25%, pH 8.0) containing 1% CHAPS. The homogenate was centrifuged at 10,000×G for 30 minutes, and the resultant supernatant was stored at -80° C. before being assayed for COX activity.
(§4) b. Assay for COX-I and COX-II activity:
(§5) COX activity was assayed as PGE2 formed/μg protein/time using an ELISA (Caymen Chemical, Ann Arbor, Mich.) to detect the prostaglandin E2 released. CHAPS-solubilized insect cell membranes containing the appropriate COX enzyme were incubated in a potassium phosphate buffer (50 mM, pH 8.0) containing phenol (0.5 mM), and heme (1 μM) with the addition of arachidonic acid (10 μM). Compounds of the present invention were pre-incubated with the enzyme for 10-20 minutes prior to the addition of the COX-I and COX-II enzyme substrate arachidonic acid (10 μM). Any reaction between the arachidonic acid and the enzyme was stopped after ten minutes at 37° C./room temperature by transferring 40 μl of reaction mix into […] ELISA buffer and 25 μM indomethacin. The PGE2 formed was measured by standard ELISA technology (Cayman Chemical, Ann Arbor, Mich.).
(§6) The results for this assay, as well as for the next assay (COX-II Cell Fibroblast Assay) are expressed in terms of COX-I or II activity as an IC50 value (50% inhibitory concentration), as defined as the amount of prostaglandin E2 (PGE2) formed per protein per time in response to the enzyme substrate arachidonic acid.

The next assay has as its target T2, 5-lipoxygenase (Rattus norvegicus, UniProt P12527).
T2 construct: The 100,000×g supernatant fraction of Rat Basophilic Leukemia Cell Homogenate (RBL-1); endogenous in cells; host or cells: RBL-1 (rat basophilic leukemia) cells, 100,000xg supernatant of homogenate
T2 sequence (P12527 1-673): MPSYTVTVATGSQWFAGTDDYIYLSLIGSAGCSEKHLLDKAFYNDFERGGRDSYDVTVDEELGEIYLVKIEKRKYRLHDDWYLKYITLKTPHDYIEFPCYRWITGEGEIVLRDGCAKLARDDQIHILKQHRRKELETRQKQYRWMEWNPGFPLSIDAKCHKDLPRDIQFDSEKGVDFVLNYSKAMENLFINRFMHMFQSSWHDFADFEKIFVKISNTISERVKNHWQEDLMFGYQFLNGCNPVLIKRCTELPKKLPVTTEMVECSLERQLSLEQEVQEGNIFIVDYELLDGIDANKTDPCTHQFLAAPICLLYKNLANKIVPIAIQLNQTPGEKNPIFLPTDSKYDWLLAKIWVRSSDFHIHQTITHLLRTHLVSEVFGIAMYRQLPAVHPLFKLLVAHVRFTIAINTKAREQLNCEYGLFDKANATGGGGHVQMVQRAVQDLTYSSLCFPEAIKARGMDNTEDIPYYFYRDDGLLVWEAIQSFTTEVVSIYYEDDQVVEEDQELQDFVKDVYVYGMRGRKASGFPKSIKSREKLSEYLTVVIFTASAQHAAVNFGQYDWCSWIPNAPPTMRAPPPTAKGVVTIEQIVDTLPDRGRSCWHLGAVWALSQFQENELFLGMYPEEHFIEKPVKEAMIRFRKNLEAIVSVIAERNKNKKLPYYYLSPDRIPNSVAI
Put plainly: Inhibition of 5-lipoxygenase, in vitro (5-HETE formation, RBL-1 homogenate supernatant). The conditions noted are these: RBL-1 supernatant. How it is done:
The compounds of the invention are evaluated with respect to 5-lipoxygenaseinhibition according to the following assay procedure.
Inhibition of 5-lipoxygenase, in vitro:
The 100,000×g supernatant fraction of Rat Basophilic Leukemia Cell Homogenate (RBL-1) serves as a 5-lipoxygenase enzyme source. The enzyme is incubated with [1-^4 C)-arachidonic acid and Ca++ in the presence and absence of test compound. The product of 5-lipoxygenase, 5-hydroxyeicosatetraenoic acid (5-HETE), is separated by thin-layer chromatography and measured by radioactivity. A compound inhibiting 5-HETE synthesis by 30% or more is considered active at that concentration.
For comparison the compound of Formula XX, a known 5-lipoxygenase inhibitor described in U.S. Pat. No. 4,755,524 was used: [drawing 29] (±)[2S*-[[3,5-bis(1,1-dimethylethyl)-4-hydroxyphenyl]thio]-1R*-methylpro poxy]acetic acid.

Another assay concerns the target T3, COX-I (Homo sapiens, UniProt P23219).
T3 construct: made in house; host or cells: SF9 insect cells, recombinant baculovirus (pVL1393); coding fragment from Cayman Chemical
Description: Human Enzyme Assay, recombinant COX-I (PGE2 ELISA). How it is done: as §1, §2, §3, §4, §5, §6
In general terms: ELISA stands for enzyme-linked immunosorbent assay.

T3 sequence (P23219 24-599): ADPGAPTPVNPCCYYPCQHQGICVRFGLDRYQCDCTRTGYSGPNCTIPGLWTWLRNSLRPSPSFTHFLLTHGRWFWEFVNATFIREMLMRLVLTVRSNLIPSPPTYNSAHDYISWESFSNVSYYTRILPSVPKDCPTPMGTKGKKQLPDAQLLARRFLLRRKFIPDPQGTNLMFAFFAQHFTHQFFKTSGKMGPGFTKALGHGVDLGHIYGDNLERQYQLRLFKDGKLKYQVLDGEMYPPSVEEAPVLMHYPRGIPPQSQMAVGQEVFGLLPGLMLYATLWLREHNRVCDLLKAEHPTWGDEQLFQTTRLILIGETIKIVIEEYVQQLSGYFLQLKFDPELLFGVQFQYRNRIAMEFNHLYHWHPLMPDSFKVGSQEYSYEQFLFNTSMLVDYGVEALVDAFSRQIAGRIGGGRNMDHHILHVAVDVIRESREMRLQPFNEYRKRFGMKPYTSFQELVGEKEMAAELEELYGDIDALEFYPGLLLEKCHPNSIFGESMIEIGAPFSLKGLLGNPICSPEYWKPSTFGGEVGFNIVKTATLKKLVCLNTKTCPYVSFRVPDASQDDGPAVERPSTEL

The IC50 is the concentration that inhibits the measured activity by half. Regarding `CC(C)(C)c1cc(S[C@H]2CCCC[C@H]2OCC(=O)O)cc(C(C)(C)C)c1` (racemic) [Example 72, (±)cis-2-[[2-[[3,5-bis(1,1-dimethylethyl)phenyl]thio]cyclohexyl]oxy]acetic acid], the IC50 is 4.11 µM on COX-II, over 100 µM against 5-lipoxygenase and over 100 µM at COX-I.
